According to patent US20220249454A1, “INHIBITORS OF MONOCARBOXYLATE TRANSPORTERS FOR CANCER IMMUNOTHERAPY” (NIROGY THERAPEUTICS, INC., priority 2021, published 2022):

What follows are molecules tested on panel of solid and haemotological tumor cell lines (e.g., Hs578t, SiHa, MDA-MB-231) (assay: MTS cell proliferation assay (cytotoxicity)). Settings: Table 1 (Group 1), 72-96 hours, 10 mM lactate medium or RPMI 1640 medium, cell line not stated.
Type: cell-based
Procedure: The anti-proliferation effect of MCT inhibition was investigated across a panel of solid and haemotological tumor cell lines. Cells were routinely cultured in their appropriate growth medium. On day 1, between 10,000-25,000 cells/well (e.g., Hs578t: 15,000 cells/well, SiHa: 10,000 cells/well, and MDA-MB-231: 25,000 cells/well) were plated into 96-well plates. 100 μL. of phosphate buffered saline solution was added to the external wells to prevent media evaporation. Plates were incubated in growth medium overnight at 37° C. in the presence of 5% CO2. On day 2, dry weight compound stocks were dissolved to a concentration of 10 mM in 100% DMSO. Compounds were further diluted in the assay medium; 10 mM lactate medium (without glucose, pyruvate, and glutamine) or RPMI 1640 medium (without pyruvate and glutamine) to generate a final dose range of 1 nM to 10 μM. Growth medium in the 96-well plate was replaced with the assay medium (10 mM lactate medium or RPMI medium or appropriate medium), and compounds were added to each well in the plate at different concentrations via serial dilution or pre-prepared solutions in assay medium. Plates were then incubated at 37° C. in the presence of 5% CO2 for a further 72-96 hours. On day 2-5, assay media was changed to 100 uL of DMEM/F12 and 20 μL of CellTiter 96 AQ MTS reagent was added to each well and the plate was returned to the incubator for 1-2 hours. MTS is bioreduced by NADPH or NADH produced by dehydrogenase enzymes in metabolically active cells into a coloured formazan product that is soluble in tissue culture medium. The amount of coloured formazan product is directly proportional to the number of living cells in culture. The absorbance of the plates was read on a Spectramax M5e plate reader using […] measurement wavelength. Dose response curves were plotted and IC50 values were calculated using GraphPad Prism. The IC50 value is equivalent to the concentration of compound that causes 50% inhibition of growth calculated from the compound treated signal to the vehicle treated signal.
Cytotoxicity of selected compounds is listed in Table 1, where IC50: A=<1 uM; B=1-10 uM; C=>10 uM; and NT=Not Tested.

Row | Compound | IC50 [µM]
1 | CN(c1cc2oc(=O)c(C(=O)O)cc2s1)S(=O)(=O)c1ccc(F)cc1 [Compound 1.026, 2-[(4-Fluoro-benzenesulfonyl)-methyl-amino]-5-oxo-5H-thieno[3,2-b]pyran-6-carboxylic acid] | < 1
2 | CN(C(=O)C1CCCCC1)c1cc2oc(=O)c(C(=O)O)cc2s1 [Compound 1.010, 2-(N-methylcyclohexanecarboxamido)-5-oxo-5H-thieno[3,2-b]pyran-6-carboxylic acid] | < 1
3 | CN(Cc1cccnc1)c1cc2oc(=O)c(C(=O)O)cc2s1 [Compound 1.013, 2-(methyl(pyridin-3-ylmethyl)amino)-5-oxo-5H-thieno[3,2-b]pyran-6-carboxylic acid] | < 1
4 | COc1cccc(CN(C)c2cc3oc(=O)c(C(=O)O)cc3s2)c1 [Compound 1.004, 2-((3-methoxybenzyl)(methyl)amino)-5-oxo-5H-thieno[3,2-b]pyran-6-carboxylic acid] | < 1
5 | CN(Cc1cccc(C(F)(F)F)c1)c1cc2oc(=O)c(C(=O)O)cc2s1 [Compound 1.006, 2-(methyl(3-(trifluoromethyl)benzyl)amino)-5-oxo-5H-thieno[3,2-b]pyran-6-carboxylic acid] | < 1
6 | CN(Cc1ccc(C(F)(F)F)cc1)c1cc2oc(=O)c(C(=O)O)cc2s1 [Compound 1.023, 2-[Methyl-(4-trifluoromethyl-benzyl)-amino]-5-oxo-5H-thieno[3,2-b]pyran-6-carboxylic acid] | < 1
7 | COc1cccc(S(=O)(=O)N(C)c2cc3oc(=O)c(C(=O)O)cc3s2)c1 [Compound 1.024, 2-[(3-Methoxy-benzenesulfonyl)-methyl-amino]-5-oxo-5H-thieno[3,2-b]pyran-6-carboxylic acid] | < 1

Same assay, conditions: Table 2 (Group 2), 72-96 hours, 10 mM lactate medium or RPMI 1640 medium, cell line not stated

Row | Compound | IC50 [µM]
8 | CN(C(=O)Nc1cccc2c1CCCC2)c1cc2oc(=O)c(C(=O)O)cc2s1 [Compound 2.038, 2-(1-methyl-3-(5,6,7,8-tetrahydronaphthalen-1-yl)ureido)-5-oxo-5H-thieno[3,2-b]pyran-6-carboxylic acid] | < 1
9 | COc1ccc(NC(=O)N(C)c2cc3oc(=O)c(C(=O)O)cc3s2)cc1 [Compound 2.008, 2-(3-(4-methoxyphenyl)-1-methylureido)-5-oxo-5H-thieno[3,2-b]pyran-6-carboxylic acid] | < 1
10 | CN(C(=O)c1ccccc1-c1ccc(F)cc1)c1cc2oc(=O)c(C(=O)O)cc2s1 [Compound 2.032, 2-(4′-fluoro-N-methyl-[1,1′-biphenyl]-2-carboxamido)-5-oxo-5H-thieno[3,2-b]pyran-6-carboxylic acid] | < 1
11 | CN(C(=O)c1cccc(-c2ccc(F)cc2)c1)c1cc2oc(=O)c(C(=O)O)cc2s1 [Compound 2.031, 2-(4′-fluoro-N-methyl-[1,1′-biphenyl]-3-carboxamido)-5-oxo-5H-thieno[3,2-b]pyran-6-carboxylic acid] | < 1
12 | CN(C(=O)Nc1ccccc1F)c1cc2oc(=O)c(C(=O)O)cc2s1 [Compound 2.024, 2-(3-(2-fluorophenyl)-1-methylureido)-5-oxo-5H-thieno[3,2-b]pyran-6-carboxylic acid] | < 1
13 | CN(C(=O)Nc1cccc(Cl)c1)c1cc2oc(=O)c(C(=O)O)cc2s1 [Compound 2.034, 2-(3-(3-chlorophenyl)-1-methylureido)-5-oxo-5H-thieno[3,2-b]pyran-6-carboxylic acid] | < 1
14 | COc1ccccc1NC(=O)N(C)c1cc2oc(=O)c(C(=O)O)cc2s1 [Compound 2.002, 2-(3-(2-methoxyphenyl)-1-methylureido)-5-oxo-5H-thieno[3,2-b]pyran-6-carboxylic acid] | < 1
15 | CN(C(=O)Nc1ccc(O)cc1)c1cc2oc(=O)c(C(=O)O)cc2s1 [Compound 2.023, 2-(3-(4-hydroxyphenyl)-1-methylureido)-5-oxo-5H-thieno[3,2-b]pyran-6-carboxylic acid] | < 1
16 | CN(C(=O)NC1CCCC1)c1cc2oc(=O)c(C(=O)O)cc2s1 [Compound 2.027, 2-(3-cyclopentyl-1-methylureido)-5-oxo-5H-thieno[3,2-b]pyran-6-carboxylic acid] | < 1
